Counter-ions that a name gives are not always drawn. Like-named read-outs stand apart in the source and are kept apart here.
Assays:
Type in all cases: cell-based
[1] = test system: add-G6 riboswitch; assay: cells; settings: for fold induction at 100 µM: Homo sapiens
Text: (§1) A truncated human beta-globin intron sequence was synthesized and inserted in the coding sequence of a firefly luciferase gene. A mutant human DHFR exon 2 was synthesized and inserted in the middle of this truncated beta-globin intron sequence using Golden gate cloning strategy. Aptamers including xpt-G/A^1, ydhl-G/A^2, yxj^3, add^4, gdg6-G/A^5 (citations for the aptamers are incorporated herein by reference) were synthesized as oligonucleotides (“oligos”) with 4 nucleotide overhang at the 5′ end that are complementary to two different BsaI sites individually (IDT), annealed and ligated to BsaI-digested mDHFR-Luci-acceptor vector.
(§2) 3.5×10^4 HEK 293 cells were plated in a 96-well flat bottom plate the day before transfection. Plasmid DNA (500 ng) was added to a tube or a 96-well U-bottom plate. […] Then, 50 μL of this diluted transfection reagent was added to the DNA, mixed, and incubated at RT for 20 min. Finally, 7 μL of this solution was added to a well of cells in the 96-well plate.
24 hours after media change, plates were removed from the incubator, and equilibrated to RT for several minutes on a lab bench, then aspirated. Glo-lysis buffer (Promega, 100 μL, RT) was added, and the plates maintained at RT for at least 5 minutes. Then, the well contents were mixed by 50 μL trituration, and 20 μL of each sample was mixed with 20 μL of bright-glo reagent (Promega) that had been diluted to 10% in glo-lysis buffer. 96 wells were spaced on an opaque white 384-well plate. Following a 5 min incubation at RT, luminescence was measured using a Tecan machine with 500 mSec read time. […]

[2] = test system: gdg6-A8 riboswitch; assay: Luciferase reporter assay, gdg6-A8 riboswitch, transfected HEK 293 cells; settings: for fold induction at 100 µM: Homo sapiens, HEK293
Text: (§3) Riboswitches were constructed as described in PCT/US2016/016234 (in particular Examples 3 to 6), incorporated herein by reference. A truncated human beta-globin intron sequence was synthesized and inserted in the coding sequence of a firefly luciferase gene. A mutant human DHFR exon 2 was synthesized and inserted in the middle of this truncated beta-globin intron sequence using Golden gate cloning strategy. Aptamers including xpt-G/A^1, ydhl-G/A^2, yxj^3, add^4, gdg6-G/A^5 (citations for the aptamers are incorporated herein by reference) were synthesized as oligonucleotides (“oligos”) with 4 nucleotide overhang at the 5′ end that are complementary to two different BsaI sites individually (IDT), annealed and ligated to BsaI-digested mDHFR-Luci-acceptor vector.
(§4) 3.5×10^4 HEK 293 cells were plated in a 96-well flat bottom plate the day before transfection. Plasmid DNA (500 ng) was added to a tube or a 96-well U-bottom plate. Separately, TransIT-293 reagent (Mirus; 1.4 μL) was added to 50 μL Opti-mem I media (Life Technologies), and allowed to sit for 5 minutes at room temperature (RT). Then, 50 μL of this diluted transfection reagent was added to the DNA, mixed, and incubated at RT for 20 min. Finally, 7 μL of this solution was added to a well of cells in the 96-well plate.
(§5) 24 hours after media change, plates were removed from the incubator, and equilibrated to RT for several minutes on a lab bench, then aspirated. Glo-lysis buffer (Promega, 100 μL, RT) was added, and the plates maintained at RT for at least 5 minutes. Then, the well contents were mixed by 50 μL trituration, and 20 μL of each sample was mixed with 20 μL of bright-glo reagent (Promega) that had been diluted to 10% in glo-lysis buffer. 96 wells were spaced on an opaque white 384-well plate. Following a 5 min incubation at RT, luminescence was measured using a Tecan machine with 500 mSec read time. The luciferase activity was expressed as mean relative light unit (RLU)±S.D., and fold induction was calculated as the luciferase activity obtained with guanine treatment divided by luciferase activity obtained without guanine treatment.

[3] = test system: ydhl-G8 riboswitch; assay: Luciferase reporter assay, ydhl-G8 riboswitch, transfected HEK 293 cells; settings: for fold induction at 100 µM: Homo sapiens
Text: as §1, §2, §5

[4] = test system: gdg6-G8 riboswitch; assay: Luciferase reporter assay, gdg6-G8 riboswitch, transfected HEK 293 cells; settings: gdg6-G8 riboswitch, Prestwick library compounds at 100 μM, HEK 293; for fold induction at 100 µM: Homo sapiens, HEK293
Text: as §3, §4, §5

[5] = test system: add-A6 riboswitch; assay: cells; settings: add-A6 riboswitch; Prestwick library compounds at 100 μM; HEK 293
Text: as §3, §4, §5

[6] = test system: xpt-G17 riboswitch; assay: Luciferase reporter assay, xpt-G17 riboswitch, transfected HEK 293 cells; settings: for fold induction at 100 µM: HEK293, xpt-G17 riboswitch; for response of guanine riboswitch xpt-G17 to compound (FIG. 1e): Prestwick library at 100 μM
Text: as §1, §4, §5

[7] = HEK293, add-G6 riboswitch, Prestwick library compounds at 100 μM, HEK 293, read-out: Fold Induction of luciferase activity
[8] = gdg6-A8 riboswitch, Prestwick library compounds at 100 μM, HEK 293
[9] = HEK293, read-out: Fold Induction of luciferase activity
[10] = Homo sapiens, Prestwick library compounds at 100 μM, HEK 293, preliminary screen
[11] = add-G6 riboswitch, Prestwick library compounds at 100 μM, HEK 293

CC(C)COCC(CN(Cc1ccccc1)c1ccccc1)N1CCCC1 (centres unmarked) [Bepridil hydrochloride]
fold induction at 100 µM [1, 7]: 4.4

O=C(CCCCCCC(=O)Nc1ccccc1)NO [Vorinostat]
fold induction at 100 µM [2, 8]: 6.4
fold induction at 100 µM [3, 9]: 3
fold induction at 100 µM [1, 7]: 3.6
fold induction at 100 µM [4]: 10.2

CN1CCCC(n2nc(Cc3ccc(Cl)cc3)c3ccccc3c2=O)CC1 (centres unmarked) [Azelastine hydrochloride]
fold induction at 100 µM ([3]; HEK293, ydhl-G8 riboswitch, Prestwick library compounds at 100 μM, HEK 293, read-out: Fold Induction of luciferase activity): 3

Deptropine citrate
Fold Induction of luciferase activity [5]: 3.3 fold

CC(=O)O[C@]1(C(C)=O)CC[C@H]2[C@@H]3C=C(C)C4=CC(=O)CC[C@@H]4[C@H]3CC[C@@]21C [Nomegestrol acetate]
fold induction at 100 µM [1, 7]: 3.5

Methotrimeprazine maleate salt
Fold Induction of luciferase activity ([2]; 100 µM): 5.0 fold

NC(=O)c1ccc[n+]([C@@H]2O[C@H](COP(=O)([O-])OP(=O)(O)OC[C@H]3O[C@@H](n4cnc5c(N)ncnc54)[C@H](O)[C@@H]3O)[C@@H](O)[C@H]2O)c1 [Nadide]
fold induction at 100 µM [6, 10]: ~40
response of guanine riboswitch xpt-G17 to compound (FIG. 1e) ([6]; preliminary screen): responded
Fold Induction of luciferase activity ([6]; xpt-G17 riboswitch, Prestwick library compounds at 100 μM, HEK 293, preliminary screen, 100 µM): 40.9 fold
fold induction at 100 µM [3, 9]: 11.7
fold induction at 100 µM [1, 7]: 30.8

CN/C(=N/CCSCc1nc[nH]c1C)NC#N [Cimetidine]
fold induction at 100 µM [2, 8]: 3

Clc1cc(Cl)c(OCC#CI)cc1Cl [Haloprogin]
fold induction at 100 µM [6, 10]: 5.1
fold induction at 100 µM [1, 7]: 5.9

O=C(Nc1ccc([N+](=O)[O-])cc1Cl)c1cc(Cl)ccc1O [Niclosamide]
fold induction at 100 µM [1, 7]: 3

[H]/N=C(/N)NS(=O)(=O)c1ccc(N)cc1 [Sulfaguanidine]
fold induction at 100 µM [3, 9]: 13.9

CCC(=O)O[C@H]1CC[C@H]2[C@@H]3CCC4=CC(=O)CC[C@]4(C)[C@H]3CC[C@]12C [Testosterone propionate]
fold induction at 100 µM [6, 10]: 29
response of guanine riboswitch xpt-G17 to compound (FIG. 1e) ([6]; preliminary screen): responded
fold induction at 100 µM [1, 9]: 8.8

O=C(OCCOCCO)c1ccccc1Nc1cccc(C(F)(F)F)c1 [Etofenamate]
fold induction at 100 µM [6, 10]: 7.5
fold induction at 100 µM [3, 9]: 4.8
fold induction at 100 µM [1, 7]: 5.1

COC(=O)Nc1nc2ccc(SC(C)C)cc2[nH]1 [Methiazole]
Fold Induction of luciferase activity [2, 8]: 3.8 fold
Fold Induction of luciferase activity [4]: 3.3 fold

CNCCCC1c2ccccc2C=Cc2ccccc21 [Protriptyline hydrochloride]
fold induction at 100 µM [1, 7]: 5

CC(=O)O[C@]1(C(C)=O)CC[C@H]2[C@@H]3C=C(Cl)C4=CC(=O)CC[C@]4(C)[C@H]3CC[C@@]21C [Chlormadinone acetate]
fold induction at 100 µM [6, 10]: 10.3
response of guanine riboswitch xpt-G17 to compound (FIG. 1e) ([6]; preliminary screen): responded
fold induction at 100 µM [3, 9]: 10.4
fold induction at 100 µM [1, 7]: 26.1

O=C(COc1ccccc1)Nc1nc2nc[nH]c2c(=O)[nH]1 [N2-Phenoxyacetyl guanine]
fold induction at 500 µM ([6]; Homo sapiens, HEK293, 24 h, xpt-G17 construct, 500 μM concentration, FIG. 1c, 1d, read-out: fold induction of luciferase activity by guanine analogs (N2 compounds)): 1300

C#C[C@]1(O)CC[C@H]2[C@@H]3CCC4=CCCC[C@@H]4[C@H]3CC[C@@]21C [Lynestrenol]
fold induction at 100 µM [1, 7]: 3.8

Meclocycline sulfosalicylate
Fold Induction of luciferase activity [1, 11]: 3.4 fold

CN(C)CCOC1=Cc2ccccc2Sc2ccc(Cl)cc21 [Zotepine]
fold induction at 100 µM [6, 10]: 4.3

Tyloxapol
Fold Induction of luciferase activity ([6]; 100 µM): 16.2 fold
response of guanine riboswitch xpt-G17 to compound (FIG. 1e) ([6]; preliminary screen): responded

CC[C@@]1(O)C(=O)OCc2c1cc1n(c2=O)Cc2cc3ccccc3nc2-1 [Camptothecine (S, +)]
Fold Induction of luciferase activity [1, 11]: 5.7 fold

C#C[C@]1(O)CC[C@H]2[C@@H]3CCC4=Cc5oncc5C[C@]4(C)[C@H]3CC[C@@]21C [Danazol]
fold induction at 100 µM [1, 7]: 3.7

CNc1ncnc2c1ncn2[C@@H]1O[C@H](CO)[C@@H](O)[C@H]1O [N6-methyladenosine]
fold induction at 100 µM [6, 10]: 30.7
response of guanine riboswitch xpt-G17 to compound (FIG. 1e) ([6]; preliminary screen): responded
fold induction at 100 µM [3, 9]: 10.7
fold induction at 100 µM [1, 7]: 20.8

Nc1ncnc2c1ncn2[C@@H]1O[C@H](COP(=O)(O)O)[C@@H](O)[C@H]1O.O [Adenosine 5′-monophosphate monohydrate]
fold induction at 100 µM [6, 10]: 28.4
response of guanine riboswitch xpt-G17 to compound (FIG. 1e) ([6]; preliminary screen): responded
fold induction at 100 µM [3, 9]: 5.9
fold induction at 100 µM [1, 9]: 9.4

C[C@@H]1[C@H](O)[C@@H](C)/C=C/C=C/C=C/C=C/C=C/C=C/C=C/[C@H](O[C@@H]2O[C@H](C)[C@@H](O)[C@H](N)[C@@H]2O)C[C@@H]2O[C@](O)(C[C@@H](O)C[C@@H](O)[C@H](O)CC[C@@H](O)C[C@@H](O)CC(=O)O[C@H]1C)C[C@H](O)[C@H]2C(=O)O [Amphotericin B]
response of guanine riboswitch xpt-G17 to compound (FIG. 1e) ([6]; preliminary screen): responded
Fold Induction of luciferase activity ([6]; xpt-G17 riboswitch, Prestwick library compounds at 100 μM, HEK 293, preliminary screen): 21.5 fold
Fold Induction of luciferase activity ([3]; ydhl-G8 riboswitch, Prestwick library compounds at 100 μM, HEK 293): 6.5 fold
Fold Induction of luciferase activity [1, 11]: 10.7 fold
Fold Induction of luciferase activity [4]: 3.8 fold

CC(C)(C)NC[C@H](O)COc1ccccc1C1CCCC1 [Penbutolol sulfate]
fold induction at 100 µM [4]: 3.3

C/C=C(/C(=C/C)c1ccc(O)cc1)c1ccc(O)cc1 [Dienestrol]
fold induction at 100 µM [2, 8]: 4.3

Avermectin B1
Fold Induction of luciferase activity [1, 11]: 11.8 fold

C[C@]12CC[C@@H]3c4ccc(O)cc4CC[C@H]3[C@@H]1C[C@@H](O)[C@@H]2O [Estriol]
fold induction at 100 µM [4]: 4.3

NC(=NCc1ccccc1)NC(=O)c1nc(Cl)c(N)nc1N [Benzamil hydrochloride]
fold induction at 100 µM [1, 7]: 3

Fc1ccc(C(c2ccc(F)cc2)N2CCN(C/C=C/c3ccccc3)CC2)cc1 [Flunarizine dihydrochloride]
fold induction at 100 µM [1, 7]: 4.7

CN1CCc2cccc3c2[C@H]1Cc1ccc(O)c(O)c1-3.CN1CCc2cccc3c2[C@H]1Cc1ccc(O)c(O)c1-3.Cl.Cl.O [R(−)Apomorphine hydrochloride hemihydrate]
Fold Induction of luciferase activity [1, 11]: 3.4 fold

CC(=O)[C@H]1CC[C@H]2[C@@H]3CCC4=CC(=O)CC[C@]4(C)[C@H]3CC[C@]12C [Progesterone]
fold induction at 100 µM [6, 10]: 12
response of guanine riboswitch xpt-G17 to compound (FIG. 1e) ([6]; preliminary screen): responded
fold induction at 100 µM [1, 7]: 6

Nc1nc2nc[nH]c2c(=S)[nH]1 [Thioguanine]
response of guanine riboswitch xpt-G17 to compound (FIG. 1e) ([6]; preliminary screen): responded

Clc1ccc(C(Cn2ccnc2)OCc2csc3c(Cl)cccc23)c(Cl)c1 (centres unmarked) [Sertaconazole Nitrate]
fold induction at 100 µM [1, 7]: 6.5

CCCCNc1ccc(C(=O)OCCN(C)C)cc1 [Tetracaine hydrochloride]
fold induction at 100 µM [3, 9]: 3.6

O=C(Nc1ccccc1)OCC(CN1CCCCC1)OC(=O)Nc1ccccc1 (centres unmarked) [Diperodon hydrochloride]
fold induction at 100 µM [2, 8]: 3

COc1ccc2[nH]c([S+]([O-])Cc3ncc(C)c(OC)c3C)nc2n1 (centres unmarked) [Tenatoprazole]
fold induction at 100 µM [6, 10]: 3.2
